Experimental data reported in patent publication US9980943B2, “Methods of treating muscular dystrophy” (BOARD OF REGENTS OF THE NEVADA SYSTEM OF HIGHER EDUCATION, …, priority 2013, dated 2018).

What was measured:
Type in all cases: cell-based, mouse
[1] = tested on: α7 integrin (LacZ reporter in α7+/LacZ myotubes); assay: Myotube α7 integrin FDG assay (Burkin assay in myotubes, 96-well); details: myotubes
[2] = tested on: α7 integrin (LacZ reporter in α7βgal+/− myoblasts); assay: Myoblast α7+/LacZ integrin FDG assay (Burkin assay in myoblasts, 96-well); details: α7+/LacZ myoblasts, 96-well
[3] = tested on: β-galactosidase in CMV-LacZ C2C12 myotubes; assay: CMV-LacZ secondary screen in C2C12 myotubes (β-Gal stabilizing assay); details: for CMV-LACZ in Myotubes (β-galactosidase activity relative to DMSO): CMV-LacZ C2C12 myotubes, 96-well format
Procedure, shortened: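 A secondary screen identifies compounds that stabilize β-gal independently of the native promoter, using CMV-LacZ C2C12 cells. Curves span 0.5–40 μM at six levels, in duplicate.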

[4] = 5 uM, C2C12 CMV-LacZ myotubes, fold relative to DMSO
[5] = 10 uM, C2C12 CMV-LacZ myotubes, fold relative to DMSO
[6] = 20 uM, C2C12 CMV-LacZ myotubes, fold relative to DMSO
[7] = 40 uM, C2C12 CMV-LacZ myotubes, fold relative to DMSO

Row | Structure (SMILES) | Burkin Assay in Myotubes (signal relative to DMSO) ([1]; 0.5 uM) | Burkin Assay in Myotubes (signal relative to DMSO) ([1]; 1 uM) | Burkin Assay in Myotubes (signal relative to DMSO) ([1]; 5 uM) | Burkin Assay in Myotubes (signal relative to DMSO) ([1]; 10 uM) | Burkin Assay in Myotubes (signal relative to DMSO) ([1]; 20 uM) | Burkin Assay in Myotubes (signal relative to DMSO) ([1]; 40 uM) | Burkin Assay in Myoblasts, value relative to DMSO ([2]; 0.5 uM) | Burkin Assay in Myoblasts, value relative to DMSO ([2]; 1 uM) | Burkin Assay in Myoblasts, value relative to DMSO ([2]; 5 uM) | Burkin Assay in Myoblasts, value relative to DMSO ([2]; 10 uM) | Burkin Assay in Myoblasts, value relative to DMSO ([2]; 20 uM) | Burkin Assay in Myoblasts, value relative to DMSO ([2]; 40 uM) | CMV-LACZ in Myotubes, signal relative to DMSO [3, 4] | CMV-LACZ in Myotubes, signal relative to DMSO [3, 5] | CMV-LACZ in Myotubes, signal relative to DMSO [3, 6] | CMV-LACZ in Myotubes, signal relative to DMSO [3, 7] | further results
1 | COc1cccc(NC(=O)c2ccc3c(c2)CCCC3)c1 [MLS000879190-01] | – | – | – | – | – | – | – | – | – | – | – | – | – | – | – | – | fold induction at 0.5 µM ([1]; Mus musculus, Myotube, 0.5 uM, read-out: Burkin Assay in Myotubes (signal relative to DMSO)): 0.965; fold induction at 1 µM ([1]; Mus musculus, Myotube, 1 uM, read-out: Burkin Assay in Myotubes (signal relative to DMSO)): 1.13; fold induction at 5 µM ([1]; Mus musculus, Myotube, 5 uM, read-out: Burkin Assay in Myotubes (signal relative to DMSO)): 1.05; fold induction at 10 µM ([1]; Mus musculus, Myotube, 10 uM, read-out: Burkin Assay in Myotubes (signal relative to DMSO)): 0.913; fold induction at 20 µM ([1]; Mus musculus, Myotube, 20 uM, read-out: Burkin Assay in Myotubes (signal relative to DMSO)): 1.08; fold induction at 40 µM ([1]; Mus musculus, Myotube, 40 uM, read-out: Burkin Assay in Myotubes (signal relative to DMSO)): 0.849; fold induction at 0.5 µM ([2]; Mus musculus, Myoblast, 48 h, 0.5 uM, read-out: Burkin Assay in Myoblasts, value relative to DMSO): 1.1; fold induction at 1 µM ([2]; Mus musculus, Myoblast, 48 h, 1 uM, read-out: Burkin Assay in Myoblasts, value relative to DMSO): 1.34; fold induction at 5 µM ([2]; Mus musculus, Myoblast, 48 h, 5 uM, read-out: Burkin Assay in Myoblasts, value relative to DMSO): 1.19; fold induction at 10 µM ([2]; Mus musculus, Myoblast, 48 h, 10 uM, read-out: Burkin Assay in Myoblasts, value relative to DMSO): 1.38; fold induction at 20 µM ([2]; Mus musculus, Myoblast, 48 h, 20 uM, read-out: Burkin Assay in Myoblasts, value relative to DMSO): 1.09; fold induction at 40 µM ([2]; Mus musculus, Myoblast, 48 h, 40 uM, read-out: Burkin Assay in Myoblasts, value relative to DMSO): 1.13; fold induction at 5 µM ([3]; Mus musculus, C2C12, read-out: CMV-LACZ in Myotubes, signal relative to DMSO, 5 uM, C2C12 CMV-LacZ myotubes, fold relative to DMSO): 0.991; fold induction at 10 µM ([3]; Mus musculus, C2C12, read-out: CMV-LACZ in Myotubes, signal relative to DMSO, 10 uM, C2C12 CMV-LacZ myotubes, fold relative to DMSO): 1.05; fold induction at 20 µM ([3]; Mus musculus, C2C12, read-out: CMV-LACZ in Myotubes, signal relative to DMSO, 20 uM, C2C12 CMV-LacZ myotubes, fold relative to DMSO): 0.85; fold induction at 40 µM ([3]; Mus musculus, C2C12, read-out: CMV-LACZ in Myotubes, signal relative to DMSO, 40 uM, C2C12 CMV-LacZ myotubes, fold relative to DMSO): 0.463
2 | O=[N+]([O-])c1cccc(S(=O)(=O)N2CCN(S(=O)(=O)N3CCOCC3)CC2)c1 [MLS000912614-01] | 1.042 | 1.024 | 1.103 | 1.055 | 0.775 | 0.7855 | 0.9551 | 1.088 | 0.9534 | 0.94 | 0.7382 | 0.7798 | 1.018 | 1.166 | 0.97 | 1.012 | –
3 | CC(NC(=O)c1cn(C)c2ccc(S(=O)(=O)N3CCCC3)cc2c1=O)c1ccccc1 (centres unmarked) [MLS000913052-01] | 1.073 | 0.9014 | 1.055 | 1.013 | 0.9725 | 0.8287 | 1.116 | 1.038 | 1.076 | 1.067 | 1.113 | 1.202 | 1.115 | 1.287 | 0.9154 | 0.92 | –
4 | CCCCN(CCCC)CCNC(=O)c1cn(C)c2ccc(S(=O)(=O)N(C)C3CCCCC3)cc2c1=O [MLS000913117-01] | – | – | – | – | – | – | – | – | – | – | – | – | 0.8036 | 0.8262 | 0.5938 | 0.6538 | Burkin Assay in Myotubes, α7 integrin LacZ reporter signal relative to DMSO ([1]; 0.5 uM): 1.09; Burkin Assay in Myotubes, α7 integrin LacZ reporter signal relative to DMSO ([1]; 1 uM): 1.208; Burkin Assay in Myotubes, α7 integrin LacZ reporter signal relative to DMSO ([1]; 5 uM): 0.9655; Burkin Assay in Myotubes, α7 integrin LacZ reporter signal relative to DMSO ([1]; 10 uM): 0.6623; Burkin Assay in Myotubes, α7 integrin LacZ reporter signal relative to DMSO ([1]; 20 uM): 0.495; Burkin Assay in Myotubes, α7 integrin LacZ reporter signal relative to DMSO ([1]; 40 uM): 0.3911; Burkin Assay in Myoblasts, signal relative to DMSO ([2]; 0.5 uM): 0.9085; Burkin Assay in Myoblasts, signal relative to DMSO ([2]; 1 uM): 0.9155; Burkin Assay in Myoblasts, signal relative to DMSO ([2]; 5 uM): 0.9138; Burkin Assay in Myoblasts, signal relative to DMSO ([2]; 10 uM): 0.6729; Burkin Assay in Myoblasts, signal relative to DMSO ([2]; 20 uM): 0.1952; Burkin Assay in Myoblasts, signal relative to DMSO ([2]; 40 uM): 0.05713
5 | CC(=O)c1cccc(NC(=O)C2CCCN(S(=O)(=O)c3cccc4nonc34)C2)c1 (centres unmarked) [MLS000937079-01] | 1.0515 | 0.6372 | 0.9756 | 0.8882 | 1.142 | 0.9197 | 1.163 | 0.8958 | 1.053 | 1.147 | 1.028 | 0.9956 | – | – | – | – | CMV-LACZ in Myotubes (β-galactosidase activity relative to DMSO) ([3]; 5 uM): 1.087; CMV-LACZ in Myotubes (β-galactosidase activity relative to DMSO) ([3]; 10 uM): 0.9923; CMV-LACZ in Myotubes (β-galactosidase activity relative to DMSO) ([3]; 20 uM): 0.9641; CMV-LACZ in Myotubes (β-galactosidase activity relative to DMSO) ([3]; 40 uM): 0.9682
